Assay results from EP2951180B1, “2,6,7,8 SUBSTITUTED PURINES AS HDM2 INHIBITORS” (Merck Sharp & Dohme Corp., priority 2013, dated 2014).

Biological target: T1, HDM2 (Homo sapiens, UniProt Q00987)
T1 construct: Thioredoxin (N); made in house; host or cells: E. coli strain BL21(DE3)Rosetta
Experiment: HDM2 FRET assay (inhibition of binding of FITC labeled p53-pocket peptide to HDM2)
Conditions: Table 11; read-out: FRET IC50
In short: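 TR-FRET with 0.5 nM His-tagged recombinant HDM2, 3 nM FITC-labelled p53 peptide and 0.25 nM Tb-anti-His antibody in PBS, 0.01% BSA, 0.01% Tween-20, 0.1% DMSO. IC50 from em520/em495 ratio over 10-point dilutions, 4-parameter logistic fit.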

T1 sequence (Q00987 17-125): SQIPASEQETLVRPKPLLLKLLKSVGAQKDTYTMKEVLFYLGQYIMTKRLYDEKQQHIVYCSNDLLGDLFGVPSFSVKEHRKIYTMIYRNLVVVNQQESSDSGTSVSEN

Question: For `C[C@@H](Nc1nc(-c2noc(=O)[nH]2)nc2nc(N3CCCC3C(C)(C)C)n(C[C@H]3CC[C@H](C)CC3)c12)C1CCC1` (stereo partly drawn) [Example 11.36, 3-{8-(2-tert-butylpyrrolidin-1-yl)-6-{[(1R)-1-cyclobutylethyl]amino}-7-[(trans-4-methylcyclohexyl)methyl]-7H-purin-2-yl}-1,2,4-oxadiazol-5(2H)-one], which IC50 is on record?
Answer: 3.93 nM

Question: How did the IC50 turn out when `C[C@@H](Nc1nc(-c2noc(=O)[nH]2)nc2nc(N3CCCC3CC(C)(C)C)n(C[C@H]3CC[C@H](C)CC3)c12)C1CCC1` (stereo partly drawn) [Example 11.37, 3-(6-{[(1R)-1-cyclobutylethyl]amino}-8-[2-(2,2-dimethylpropyl)pyrrolidin-1-yl]-7-[(trans-4-methylcyclohexyl)methyl]-7H-purin-2-yl)-1,2,4-oxadiazol-5(2H)-one] was run?
Answer: 6.98 nM

Question: `C[C@@H](Nc1nc(-c2noc(=O)[nH]2)nc2nc(N3CCCC3C3CCC3)n(C[C@H]3CC[C@H](C)CC3)c12)C1CCC1` (stereo partly drawn) [Example 11.38, 3-(6-{[(1R)-1-cyclobutylethyl]amino}-8-(2-cyclobutylpyrrolidin-1-yl)-7-[(trans-4-methylcyclohexyl)methyl]-7H-purin-2-yl)-1,2,4-oxadiazol-5(2H)-one] was tested. Which IC50 did it give?
Answer: 4.86 nM

Question: `COCC1CCCCN1c1nc2nc(-c3noc(=O)[nH]3)nc(N[C@H](C)C3CCC3)c2n1C[C@H]1CC[C@H](C)CC1` (stereo partly drawn) [Example 11.39, 3-(6-{[(1R)-1-cyclobutylethyl]amino}-8-[2-(methoxymethyl)piperidin-1-yl]-7-[(trans-4-methylcyclohexyl)methyl]-7H-purin-2-yl)-1,2,4-oxadiazol-5(2H)-one] was tested. Which IC50 did it give?
Answer: 9.71 nM

Question: How did the IC50 turn out when `C[C@@H](Nc1nc(-c2noc(=O)[nH]2)nc2nc(N3CCCCC3CF)n(C[C@H]3CC[C@H](C)CC3)c12)C1CCC1` (stereo partly drawn) [Example 11.40, 3-(6-{[(1R)-1-cyclobutylethyl]amino}-8-[2-(fluoromethyl)piperidin-1-yl]-7-[(trans-4-methylcyclohexyl)methyl]-7H-purin-2-yl)-1,2,4-oxadiazol-5(2H)-one] was run?
Answer: 8.52 nM

Question: How did the IC50 turn out when `CC(C)CC1COCCN1c1nc2nc(-c3noc(=O)[nH]3)nc(N[C@H](C)C3CCC3)c2n1C[C@H]1CC[C@H](C)CC1` (stereo partly drawn) [Example 11.41, 3-(6-{[(1R)-1-cyclobutylethyl]amino}-7-[(trans-4-methylcyclohexyl)methyl]-8-[3-(2-methylpropyl)morpholin-4-yl]-7H-purin-2-yl)-1,2,4-oxadiazol-5(2H)-one] was run?
Answer: 14.7 nM

Question: How did the IC50 turn out when `C[C@@H](Nc1nc(-c2noc(=O)[nH]2)nc2nc(N(C)CC3CC3)n(C[C@H]3CC[C@H](C)CC3)c12)C1CCC1` [Example 11.42, 3-(6-{[(1R)-1-cyclobutylethyl]amino}-8-[(cyclopropylmethyl) (methyl)amino]-7-[(trans-4-methylcyclohexyl)methyl]-7H-purin-2-yl)-1,2,4-oxadiazol-5(2H)-one] was run?
Answer: 5.34 nM

Question: For `C[C@@H](Nc1nc(-c2noc(=O)[nH]2)nc2nc(N(C)CC(C)(C)C)n(C[C@H]3CC[C@H](C)CC3)c12)C1CCC1` [Example 11.43, 3-(6-{[(1R)-1-cyclobutylethyl]amino}-8-[(2,2-dimethylpropyl)(methyl)amino]-7-[(trans-4-methylcyclohexyl)methyl]-7H-purin-2-yl)-1,2,4-oxadiazol-5(2H)-one], which IC50 is on record?
Answer: 19.4 nM

Question: With `CCCN(C)c1nc2nc(-c3noc(=O)[nH]3)nc(N[C@H](C)C3CCC3)c2n1C[C@H]1CC[C@H](C)CC1` [Example 11.44, 3-(6-{[(1R)-1-cyclobutylethyl]amino}-7-[(trans-4-methylcyclohexyl)methyl]-8-[methyl(propyl)amino]-7H-purin-2-yl)-1,2,4-oxadiazol-5(2H)-one] as the compound, how does the IC50 read?
Answer: 9.97 nM

Question: With `C[C@@H](Nc1nc(-c2noc(=O)[nH]2)nc2nc(N3CCCCC3Cc3ccccc3)n(C[C@H]3CC[C@H](C)CC3)c12)C1CCC1` (stereo partly drawn) [Example 11.45, 3-{8-(2-benzylpiperidin-1-yl)-6-{[(1R)-1-cyclobutylethyl]amino}-7-[(trans-4-methylcyclohexyl)methyl]-7H-purin-2-yl}-1,2,4-oxadiazol-5(2H)-one] as the compound, how does the IC50 read?
Answer: 81.9 nM

Question: For `CC(C)C1CCCN1c1nc2nc(-c3noc(=O)[nH]3)nc(N[C@H](C)C3CCC3)c2n1C[C@H]1CC[C@H](C)CC1` (stereo partly drawn) [Example 11.46, 3-(6-{[(1R)-1-cyclobutylethyl]amino}-7-[(trans-4-methylcyclohexyl)methyl]-8-[2-(1-methylethyl)pyrrolidin-1-yl]-7H-purin-2-yl)-1,2,4-oxadiazol-5(2H)-one], which IC50 is on record?
Answer: 4.46 nM

Question: Which IC50 does the source give for `CC1CCCCN1c1nc2nc(-c3noc(=O)[nH]3)nc(N[C@H](C)C3CCC3)c2n1C[C@H]1CC[C@H](C)CC1` (stereo partly drawn) [Example 11.47, 3-[6-{[(1R)-1-cyclobutylethyl]amino}-7-[(trans-4-methylcyclohexyl)methyl]-8-(2-methylpiperidin-1-yl)-7H-purin-2-yl]-1,2,4-oxadiazol-5(4H)-one] here?
Answer: 7.27 nM

Question: How did the IC50 turn out when `CC(C)CN(C)c1nc2nc(-c3noc(=O)[nH]3)nc(N[C@H](C)C3CCC3)c2n1C[C@H]1CC[C@H](C)CC1` [Example 11.48, 3-(6-{[(1R)-1-cyclobutylethyl]amino}-7-[(trans-4-methylcyclohexyl)methyl]-8-[methyl(2-methylpropyl)amino] -7H-purin-2-yl)-1,2,4-oxadiazol-5(4H)-one] was run?
Answer: 6.71 nM

Question: With `C[C@@H](Nc1nc(C(=O)O)nc2nc(N3CCOC[C@H]3c3ccccc3)n(C[C@H]3CC[C@H](C)CC3)c12)C(F)(F)F` [Example 11.51, 7-[(trans-4-methylcyclohexyl)methyl]-8-[(3R)-3-phenylmorpholin-4-yl]-6-{[(1R)-2,2,2-trifluoro-1-methylethyl]amino}-7H-purine-2-carboxylic acid] as the compound, how does the IC50 read?
Answer: 2.26 nM

Question: Which IC50 does the source give for `CCC1CCCCN1c1nc2nc(C(=O)O)nc(N[C@H](C)C3CCC3)c2n1C[C@H]1CC[C@H](C)CC1` (stereo partly drawn) [Example 11.52, 6-{[(1R)-1-cyclobutylethyl]amino}-8-(2-ethylpiperidin-1-yl)-7-[(trans-4-methylcyclohexyl)methyl]-7H-purine-2-carboxylic acid] here?
Answer: 3.43 nM

Question: `C[C@@H](Nc1nc(-c2noc(=O)[nH]2)nc2nc(N3CCOC[C@H]3c3ccccc3)n(C[C@H]3CC[C@H](C)CC3)c12)C(F)(F)F` [Example 11.53, 3-(7-[(trans-4-methylcyclohexyl)methyl]-8-[(3R)-3-phenylmorpholin-4-yl]-6-{[(1R)-2,2,2-trifluoro-1-methylethyl]amino}-7H-purin-2-yl)-1,2,4-oxadiazol-5(4H)-one] was tested. Which IC50 did it give?
Answer: 4.68 nM

Question: How did the IC50 turn out when `CC(C)C1CCCCN1c1nc2nc(C(=O)O)nc(N[C@H](C)C3CCC3)c2n1C[C@H]1CC[C@H](C)CC1` (stereo partly drawn) [Example 11.54, 6-{[(1R)-1-cyclobutylethyl]amino}-7-[(trans-4-methylcyclohexyl)methyl]-8-[2-(1-methylethyl)piperidin-1-yl] -7H-purine-2-carboxylic acid] was run?
Answer: 3.31 nM

Question: How did the IC50 turn out when `C[C@@H](Nc1nc(-c2n[nH]c(=O)o2)nc2nc(N3CCOC[C@H]3c3ccccc3)n(C[C@H]3CC[C@H](C)CC3)c12)C1CCC1` [Example 11.55, 5-(6-{[(1R)-1-cyclobutylethyl]amino}-7-[(trans-4-methylcyclohexyl)methyl]-8-[(3R)-3-phenylmorpholin-4-yl]-7H-purin-2-yl)-1,3,4-oxadiazol-2(3H)-one] was run?
Answer: 2.14 nM

Question: With `C[C@@H](Nc1nc(C(=O)O)nc2nc(N3CCCCC3Cc3ccc(F)cc3)n(C[C@H]3CC[C@H](C)CC3)c12)C1CCC1` (stereo partly drawn) [Example 11.56, 6-{[(1R)-1-cyclobutylethyl]amino}-8-[2-(4-fluorobenzyl)piperidin-1-yl]-7-[(trans-4-methylcyclohexyl)methyl]-7H-purine-2-carboxylic acid] as the compound, how does the IC50 read?
Answer: 11.6 nM

Question: How did the IC50 turn out when `C[C@@H](Nc1nc(-c2noc(=O)[nH]2)nc2nc(-n3ccnc3)n(C[C@H]3CC[C@H](C)CC3)c12)C1CCC1` [Example 11.57, 3-(6-{[(1R)-1-cyclobutylethyl]amino}-8-(1H-imidazol-1-yl)-7-[(trans-4-methylcyclohexyl)methyl]-7H-purin-2-yl)-1,2,4-oxadiazol-5(4H)-one] was run?
Answer: 16.4 nM

Question: For `C[C@@H](Nc1nc(-c2noc(=O)[nH]2)nc2nc(N3CCC[C@H]4CCCC[C@@H]43)n(C[C@H]3CC[C@H](C)CC3)c12)C1CCC1` [Example 11.60, 3-(6-{[(1R)-1-cyclobutylethyl]amino}-7-[(trans-4-methylcyclohexyl)methyl]-8-[(4aR,8aS)-octahydroquinolin-1(2H)-yl]-7H-purin-2-yl)-1,2,4-oxadiazol-5(4H)-one], which IC50 is on record?
Answer: 10.5 nM

Question: `C[C@@H](Nc1nc(-c2noc(=O)[nH]2)nc2nc(N3CCC[C@@H]4CCCC[C@H]43)n(C[C@H]3CC[C@H](C)CC3)c12)C1CCC1` [Example 11.61, 3-(6-{[(1R)-1-cyclobutylethyl]amino}-7-[(trans-4-methylcyclohexyl)methyl]-8-[(4aS,8aR)-octahydroquinolin-1(2H)-yl]-7H-purin-2-yl)-1,2,4-oxadiazol-5(4H)-one] was tested. Which IC50 did it give?
Answer: 5.13 nM

Question: With `C[C@H]1CC[C@H](Cn2c(N3CCOC[C@H]3c3ccccc3)nc3nc(-c4noc(=O)[nH]4)nc(N4CCCC4C4CCC4)c32)CC1` (stereo partly drawn) [Example 11.62, 3-{6-(2-cyclobutylpyrrolidin-1-yl)-7-[(trans-4-methylcyclohexyl)methyl]-8-[(3R)-3-phenylmorpholin-4-yl]-7H -purin-2-yl}-1,2,4-oxadiazol-5(4H)-one] as the compound, how does the IC50 read?
Answer: 7.84 nM

Question: How did the IC50 turn out when `Cc1nonc1CN(C)c1nc2nc(-c3noc(=O)[nH]3)nc(N[C@H](C)C3CCC3)c2n1C[C@H]1CC[C@H](C)CC1` [Example 11.63, 3-(6-{[(1R)-1-cyclobutylethyl]amino}-7-[(trans-4-methylcyclohexyl)methyl]-8-{methyl[(4-methyl-1,2,5-oxadiazol-3-yl)methyl]amino}-7H-purin-2-yl)-1,2,4-oxadiazol-5(4H)-one] was run?
Answer: 3.71 nM

Question: How did the IC50 turn out when `C[C@@H](Nc1nc(-c2noc(=O)[nH]2)nc2nc(N(C)Cc3ccon3)n(C[C@H]3CC[C@H](C)CC3)c12)C1CCC1` [Example 11.64, 3-(6-{[(1R)-1-cyclobutylethyl]amino}-8-[(isoxazol-3-ylmethyl)(methyl)amino]-7-[(trans-4-methylcyclohexyl)methyl]-7H-purin-2-yl)-1,2,4-oxadiazol-5(4H)-one] was run?
Answer: 5.77 nM
